Results from paper PMC5833389 (Oncogenesis, 2018).
Values joined by “and” are separate entries in the source; they are usually repeats but may differ in a detail not shown here. Identical values can stand only once.

How the values were obtained:
[1] = molecular target: T1, FES (Homo sapiens, UniProt P07332); assay: FES kinase assay, Z'-LYTE; assay type: biochemical
T1 construct: purchased Invitrogen/Life Technologies
Experimental: IC50 values on FAK and PYK2 were determined using the DELFIA® format, using kinase proteins obtained from Invitrogen (#PV3832, #PV4567) and biotinylated poly(Glu,Tyr) as substrate. Incubation in the presence of test compound was followed by detection of phosphorylated substrate using streptavidin-coated plates and Eu-N1 anti-phospho-Tyr PT66 antibody (#AD0040, VICTOR™ reader, both Perkin Elmer). Data were analyzed using GraphPad Prism. […] Data was fitted by iterative calculation using a sigmoidal curve analysis with variable Hill slope. In independent assays, IC50 values were determined using Z'-LYTE® technology, which is based on FRET (Invitrogen/Life Technologies). Selectivity was determined on the Invitrogen kinase panel at 1 µmol/L.

[2] = tested on: A-498 kidney xenograft; assay: Subcutaneous xenograft efficacy; assay type: in vivo, mice
Experimental: (§1) For efficacy studies, 1 × 10^7 MIA PaCa-2 or 1 × 10^6 BxPC-3 cells (with Matrigel® 50:50) were injected subcutaneously into the right flank of female BomTac:NMRI-Foxn1^nu mice (age 6 weeks, 24-30 g; Taconic, Denmark). These two and the following tumor models were established from adherently grown cells which were either subcutaneously injected in PBS (LoVo, SW480, A-498, Calu-6, NCI-H2122, A549, SK-OV-3, TOV-21G, AsPC-1, PC-3) or were injected with Matrigel (HCC-461, A2780, PANC-1 and Hs 746 T). For the Caki-1 tumor model tumor fragments were passaged in mice. Mice were randomized according to tumor volume when tumors had reached diameters of 6–8 mm. […] Natrosol-treated animals served as vehicle controls (n = 10). Tumor diameters were measured three times weekly using a caliper and volumes were calculated according to the formula “tumor volume = length × diameter^2 × π/6”. Mice were inspected daily for abnormalities and body weight was determined three times weekly. Animals were euthanized at the end of the study or prematurely, based on criteria including weight loss exceeding 20%, tumor necrosis or tumor volumes exceeding 1500 mm^3.
(§2) Statistical evaluation was performed using SAS 8.2 (SAS Institute, Cary, NC, USA) and Proc StatXact (Cytel Software, Cambridge, MA, USA).
(§3) where Td and Cd denote the median of the tumor volume in the treatment group and the control group at day d, respectively. A one-sided increasing Wilcoxon test was applied to compare each experimental group with the vehicle control, the p values were adjusted for multiple comparisons according to Bonferroni–Holm. The level of significance was fixed at α = 5%. An adjusted p value of <0.05 was considered to show a significant difference between groups.

[3] = tested on: A2780 ovary xenograft; assay: Subcutaneous xenograft efficacy; assay type: in vivo, mice
Experimental: as §1, §2, §3

[4] = tested on: A549 lung xenograft; assay: Subcutaneous xenograft efficacy; assay type: in vivo, mice
Experimental: as §1, §2, §3

[5] = tested on: AsPC-1 pancreas xenograft; assay: Subcutaneous xenograft efficacy; assay type: in vivo, mice
Experimental: as §1, §2, §3

[6] = tested on: BxPC-3 pancreas adenocarcinoma xenograft; assay: Subcutaneous xenograft efficacy; assay type: in vivo, mice; conditions: BxPC-3, 50 mg/kg
Experimental: as §1, §2, §3

[7] = tested on: Caki-1 kidney xenograft; assay: Subcutaneous xenograft efficacy; assay type: in vivo, mice
Experimental: as §1, §2, §3

[8] = tested on: Calu-6 lung xenograft; assay: Subcutaneous xenograft efficacy; assay type: in vivo, mice
Experimental: as §1, §2, §3

[9] = tested on: HCC-461 lung xenograft; assay: Subcutaneous xenograft efficacy; assay type: in vivo, mice
Experimental: as §1, §2, §3

[10] = tested on: Hs 746T stomach xenograft; assay: Subcutaneous xenograft efficacy; assay type: in vivo, mice
Experimental: as §1, §2, §3

[11] = tested on: LoVo colon/rectum xenograft; assay: Subcutaneous xenograft efficacy; assay type: in vivo, mice
Experimental: as §1, §2, §3

[12] = tested on: MIA PaCa-2 pancreas adenocarcinoma xenograft; assay: Subcutaneous xenograft efficacy; assay type: in vivo, mice
Experimental: as §1, §2, §3

[13] = tested on: NCI-H2122 lung carcinoma xenograft; assay: Subcutaneous xenograft efficacy; assay type: in vivo, mice
Experimental: as §1, §2, §3

[14] = tested on: PANC-1 pancreas xenograft; assay: Subcutaneous xenograft efficacy; assay type: in vivo, mice
Experimental: as §1, §2, §3

[15] = tested on: PC-3 prostate carcinoma xenograft; assay: Subcutaneous xenograft efficacy; assay type: in vivo, mice
Experimental: as §1, §2, §3

[16] = tested on: SK-OV-3 ovarian carcinoma xenograft; assay: Subcutaneous xenograft efficacy; assay type: in vivo, mice
Experimental: as §1, §2, §3

[17] = tested on: SW480 colon carcinoma xenograft; assay: Subcutaneous xenograft efficacy; assay type: in vivo, mice
Experimental: as §1, §2, §3

[18] = tested on: TOV-21G ovary xenograft; assay: Subcutaneous xenograft efficacy; assay type: in vivo, mice
Experimental: as §1, §2, §3

T1 sequence (P07332 whole entry): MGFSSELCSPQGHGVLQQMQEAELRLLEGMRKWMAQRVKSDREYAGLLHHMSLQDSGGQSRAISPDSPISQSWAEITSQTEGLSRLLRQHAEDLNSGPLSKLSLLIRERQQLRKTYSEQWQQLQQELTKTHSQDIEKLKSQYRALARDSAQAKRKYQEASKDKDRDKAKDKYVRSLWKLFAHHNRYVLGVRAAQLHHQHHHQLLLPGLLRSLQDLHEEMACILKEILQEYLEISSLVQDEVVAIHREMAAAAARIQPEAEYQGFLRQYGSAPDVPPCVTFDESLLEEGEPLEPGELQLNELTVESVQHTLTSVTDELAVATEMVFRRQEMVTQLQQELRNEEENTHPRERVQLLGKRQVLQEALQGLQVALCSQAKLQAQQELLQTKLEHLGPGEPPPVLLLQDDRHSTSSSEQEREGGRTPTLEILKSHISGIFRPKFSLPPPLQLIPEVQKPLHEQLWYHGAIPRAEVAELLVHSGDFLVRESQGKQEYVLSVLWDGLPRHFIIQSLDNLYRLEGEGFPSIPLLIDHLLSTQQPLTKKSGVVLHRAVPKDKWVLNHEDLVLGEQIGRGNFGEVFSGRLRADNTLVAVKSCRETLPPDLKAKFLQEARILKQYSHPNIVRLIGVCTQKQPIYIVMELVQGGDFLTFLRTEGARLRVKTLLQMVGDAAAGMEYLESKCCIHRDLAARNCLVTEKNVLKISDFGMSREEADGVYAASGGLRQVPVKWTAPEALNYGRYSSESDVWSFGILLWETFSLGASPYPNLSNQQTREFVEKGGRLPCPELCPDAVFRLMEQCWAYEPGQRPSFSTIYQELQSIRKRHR

`COc1cc(C(=O)NC2CCN(C)CC2)c(F)cc1Nc1ncc(C(F)(F)F)c(Oc2cccc3c2C(=O)N(C)C3)n1` [BI 853520] was tested. Which IC50 [1] did it give?
The IC50 was 1040 nM.

What about the “Median TGI” value ([2]; A-498, 50 mg/kg once daily per os) of the same molecule?
Its value is 93%.

And the TGI ([2]; A-498 xenograft, Supplement Table 3)?
The TGI was 93%.

What about the “Median TGI” value ([3]; A2780, 50 mg/kg once daily per os) of the same molecule?
The value was 89%.

And the TGI ([3]; A2780 xenograft, Supplement Table 3)?
Its TGI is 89%.

What about the “Median TGI” value ([4]; A549, 50 mg/kg once daily per os) of the same molecule?
The value was 15 (n.s.) % and 15%.

And the TGI ([4]; A549 xenograft, Supplement Table 3)?
The TGI was 15%.

What about the “Median TGI” value ([5]; AsPC-1, 50 mg/kg once daily per os) of the same molecule?
Its value is 13 (n.s.) % and 13%.

What about the TGI ([5]; AsPC-1 xenograft, Supplement Table 3) of the same molecule?
The TGI was 13%.

And the “Median TGI” value [6]?
Its value is 29%.

What about the “Median TGI” value ([7]; Caki-1, 50 mg/kg once daily per os) of the same molecule?
Its value is 66%.

And the TGI ([7]; Caki-1 xenograft, Supplement Table 3)?
Its TGI is 66%.

What about the “Median TGI” value ([8]; Calu-6, 50 mg/kg once daily per os) of the same molecule?
Its value is 102%.

And the TGI ([8]; Calu-6 xenograft, Supplement Table 3)?
Its TGI is 102%.

And the “Median TGI” value ([9]; HCC-461, 50 mg/kg once daily per os)?
The value was 102%.

And the TGI ([9]; HCC-461 xenograft, Supplement Table 3)?
Its TGI is 102%.

And the TGI ([10]; Hs 746T xenograft, Supplement Table 3)?
The TGI was 72%.

What about the “Median TGI” value ([10]; Hs 746T, 50 mg/kg once daily per os) of the same molecule?
The value was 72%.

What about the TGI ([11]; LoVo xenograft, Supplement Table 3) of the same molecule?
The TGI was 14%.

And the “Median TGI” value ([11]; LoVo, 50 mg/kg once daily per os, 50 mg/kg)?
Its value is 14 (n.s.) % and 14%.

What about the TGI ([12]; MIA PaCa-2, 12.5 mg/kg, second independent study) of the same molecule?
The TGI was 89%.

What about the partial regressions ([12]; MIA PaCa-2, 25 mg/kg once daily) of the same molecule?
The partial regressions was 5 out of 10 tumors.

And the TGI ([12]; MIA PaCa-2, 25 mg/kg once daily, first study)?
The TGI was 94%.

And the TGI ([12]; MIA PaCa-2, 25 mg/kg, second independent study)?
Its TGI is 96%.

And the partial regressions ([12]; MIA PaCa-2, 50 mg/kg once daily)?
The partial regressions was 6 out of 10 tumors.

What about the “Median TGI” value ([12]; MIA PaCa-2, 50 mg/kg once daily per os) of the same molecule?
Its value is 104%.

And the TGI ([12]; MIA PaCa-2 xenograft, Supplement Table 3)?
The TGI was 104%.

What about the “Median TGI” value ([13]; NCI-H2122, 50 mg/kg once daily per os) of the same molecule?
The value was 45 (n.s.) % and 45%.

What about the TGI ([13]; NCI-H2122 xenograft, Supplement Table 3) of the same molecule?
The TGI was 45%.

And the “Median TGI” value ([14]; PANC-1, 50 mg/kg once daily per os)?
Its value is 83%.

And the TGI ([14]; PANC-1 xenograft, Supplement Table 3)?
Its TGI is 83%.

What about the “Median TGI” value ([15]; PC-3, 50 mg/kg once daily per os) of the same molecule?
The value was 93%.

What about the TGI ([15]; PC-3 xenograft, Supplement Table 3) of the same molecule?
Its TGI is 93%.

What about the “Median TGI” value ([16]; SK-OV-3, 50 mg/kg once daily per os) of the same molecule?
The value was 57%.

What about the TGI ([16]; SK-OV-3 xenograft, Supplement Table 3) of the same molecule?
Its TGI is 57%.

And the “Median TGI” value ([17]; SW480, 50 mg/kg once daily per os)?
Its value is 26 (n.s.) % and 26%.

And the TGI ([17]; SW480 xenograft, Supplement Table 3)?
The TGI was 26%.

And the TGI ([18]; TOV-21G xenograft, Supplement Table 3)?
Its TGI is 93%.

And the “Median TGI” value ([18]; TOV-21G, 50 mg/kg once daily per os)?
The value was 93%.
